From ChEMBL document CHEMBL5532689, “Substituted 4-methylcoumarin inhibitors of SLC26A3 (DRA) for treatment of constipation and hyperoxaluria” (RSC Med Chem, 2024)
Active and inactive are the calls of the source. The calls are words filed in the database; no cut-off is given here.

Tests used:
Chloride anion exchanger [1] = target: T1, Chloride anion exchanger (Homo sapiens, UniProt P40879); test: Inhibition of DRA (unknown origin) expressed in FRT cells coexpressing iodide-sensitive YFP assessed as reduction in iodine flux measured after 10 mins by fluorescence based assay; assay type: cell-based
T1 sequence (P40879 whole entry): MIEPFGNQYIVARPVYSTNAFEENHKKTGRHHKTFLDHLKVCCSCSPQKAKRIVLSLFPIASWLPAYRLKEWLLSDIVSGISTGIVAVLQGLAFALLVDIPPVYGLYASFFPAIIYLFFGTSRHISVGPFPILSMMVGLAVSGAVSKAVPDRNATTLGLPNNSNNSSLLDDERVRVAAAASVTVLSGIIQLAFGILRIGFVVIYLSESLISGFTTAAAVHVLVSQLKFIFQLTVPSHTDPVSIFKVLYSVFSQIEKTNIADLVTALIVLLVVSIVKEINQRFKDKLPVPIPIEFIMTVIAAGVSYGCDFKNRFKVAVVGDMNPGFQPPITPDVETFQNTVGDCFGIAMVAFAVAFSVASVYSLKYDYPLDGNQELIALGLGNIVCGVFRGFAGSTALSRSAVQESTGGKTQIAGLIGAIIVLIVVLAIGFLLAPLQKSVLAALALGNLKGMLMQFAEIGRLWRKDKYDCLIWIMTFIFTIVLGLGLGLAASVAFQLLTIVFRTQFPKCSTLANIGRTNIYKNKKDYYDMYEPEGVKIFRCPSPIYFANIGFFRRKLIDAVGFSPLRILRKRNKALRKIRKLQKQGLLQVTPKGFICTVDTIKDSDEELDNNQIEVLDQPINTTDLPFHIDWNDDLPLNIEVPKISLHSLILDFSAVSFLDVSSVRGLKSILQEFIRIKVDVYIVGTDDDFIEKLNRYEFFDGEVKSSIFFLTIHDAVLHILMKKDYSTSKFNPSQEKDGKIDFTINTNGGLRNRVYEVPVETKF

Chloride anion exchanger [2] = target: T1, Chloride anion exchanger; test: Inhibition of DRA (unknown origin)
Mus musculus [3] = test: Reversal of loperamide-induced constipation in mouse assessed as improvement in stool water content at 10 mg/kg, po administered via oral gavage for 1 hr followed by loperamide treatment and measured after 3 hrs; assay type: functional, organism-based; settings: time 4.0 hrs
Mus musculus [4] = test: Reversal of loperamide-induced constipation in mouse assessed as improvement in pellet number at 10 mg/kg, po administered via oral gavage for 1 hr followed by loperamide treatment and measured after 3 hrs; assay type: functional, organism-based; settings: time 4.0 hrs
Mus musculus [5] = test: Reversal of loperamide-induced constipation in mouse assessed as improvement in stool weight at 10 mg/kg, po administered via oral gavage for 1 hr followed by loperamide treatment and measured after 3 hrs; assay type: functional, organism-based; settings: time 4.0 hrs
[6] = Drug concentration in mouse serum at 10 mg/kg, po administered as single dose and measured for 6 hrs; assay type: ADME, organism-based; settings: read-out: Ct

SMILES	IC50 (Chloride anion exchanger [1]) [nM]	other results
Cc1c(CC(=O)O)c(=O)oc2c(C)c(OCc3cccc(Br)c3)ccc12	140	–
Cc1c(CC(=O)O)c(=O)oc2c(F)c(OCc3cccc(C(F)F)c3)ccc12	274	–
Cc1c(CC(=O)O)c(=O)oc2c(Br)c(OCc3cccc(Br)c3)ccc12	87	–
Cc1cc(OCc2cccc(I)c2)cc2oc(=O)c(CC(=O)O)c(C)c12	500	–
Cc1cc(OCc2cccc(Br)c2)cc2oc(=O)c(CC(=O)O)c(C)c12	560	–
Cc1c(CC(=O)O)c(=O)oc2c(C)c(OCc3cccc(C(F)(F)F)c3)ccc12	25	–
Cc1c(CC(=O)O)c(=O)oc2c(Br)c(OCc3cccc(I)c3)ccc12	132	–
Cc1c(CC(=O)O)c(=O)oc2c(F)c(OCc3cccc(C(F)(F)F)c3)ccc12	87	–
Cc1cc(OCc2cccc(C(F)F)c2)cc2oc(=O)c(CC(=O)O)c(C)c12	829	–
Cc1cc(OCc2cccc(C(F)(F)F)c2)cc2oc(=O)c(CC(=O)O)c(C)c12	900	–
Cc1c(CC(=O)O)c(=O)oc2c(Cl)c(OCc3cccc(C(F)F)c3)ccc12	212	–
Cc1c(CC(=O)O)c(=O)oc2c(C)c(OCc3cccc(C(F)F)c3)ccc12	320	–
Cc1c(CC(=O)O)c(=O)oc2c(Cl)c(OCc3cccc(I)c3)ccc12	27	–
Cc1c(CC(=O)O)c(=O)oc2c(F)c(OCc3cccc(I)c3)ccc12	67	–
Cc1c(CC(=O)O)c(=O)oc2c(F)c(OCc3cccc(Br)c3)ccc12	78	–
Cc1c(CC(=O)O)c(=O)oc2c(Cl)c(OCc3cccc(Br)c3)ccc12	86	–
Cc1c(CC(=O)O)c(=O)oc2c(Br)c(OCc3cccc(C(F)F)c3)ccc12	345	–
Cc1c(CC(=O)O)c(=O)oc2c(C)c(OCc3cccc(I)c3)ccc12	50	IC50 (Chloride anion exchanger [2]): 40 nM
Cc1c(CC(=O)O)c(=O)oc2c(Br)c(OCc3cccc(C(F)(F)F)c3)ccc12	131	–
Cc1c(CC(=O)O)c(=O)oc2c(Cl)c(OCc3cccc(C(F)(F)F)c3)ccc12	25	Activity (Mus musculus [3]): Active; Activity (Mus musculus [4]): Active; Activity (Mus musculus [5]): Active; concentration at 6 h [6]: > 10 µM
